Target: T1, PYL1 (Arabidopsis thaliana, UniProt Q8VZS8, S119A)
T1 sequence (Q8VZS8 2-221 S119A): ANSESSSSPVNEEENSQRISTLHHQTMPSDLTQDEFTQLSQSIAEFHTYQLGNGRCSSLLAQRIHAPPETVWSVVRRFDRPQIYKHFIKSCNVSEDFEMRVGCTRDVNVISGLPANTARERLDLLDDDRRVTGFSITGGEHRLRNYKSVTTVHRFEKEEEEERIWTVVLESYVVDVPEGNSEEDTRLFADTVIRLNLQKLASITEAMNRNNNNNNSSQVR
Assay: microscale thermophoresis
Type: binding

## CC1=CC(=O)CC(C)(C)[C@@]1(O)/C=C/C(C)=C\C(=O)O [Abscisic Acid]
  Kd: 219 µM
